Data reported in the supplement of paper PMC10307832.

Legend:
Assay in all cases: relative viability (nuclei count vs DMSO), 5 days (fraction); higher = more cells survive
Veliparib + Vorinostat = compound: C[C@]1(c2nc3c(C(N)=O)cccc3[nH]2)CCCN1 [Veliparib] + O=C(CCCCCCC(=O)Nc1ccccc1)NO [Vorinostat] (partner 1 µM)
How it was run: (§1)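 After 5 days of treatment, lung cancer cells in 1536-well plates were fixed and stained in a single step (final 0.05% Triton X-100, 1% formaldehyde, 1 ug/ml Hoechst) and their nuclei counted on 4× images. Treatment had been applied by pin tool the day after seeding as one drug alone or as a fixed anchor-drug dose with five library-drug doses (not always all listed) in √10 steps. Relative viability is the nuclei count of treated wells divided by that of vehicle wells, and values are medians of duplicate plates.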

Veliparib + Decitabine = compound: C[C@]1(c2nc3c(C(N)=O)cccc3[nH]2)CCCN1 [Veliparib] + Nc1ncn([C@H]2C[C@H](O)[C@@H](CO)O2)c(=O)n1 [Decitabine] (partner 2 µM)
How it was run: as §1

[1] = compound: COC1=CC=C(C=C1)CN2C=CC3=C2C=C(C=C3)C(=O)NO + O=C(CCCCCCC(=O)Nc1ccccc1)NO [Vorinostat] (partner 1 µM)
How it was run: as §1

Veliparib + Dasatinib = compound: C[C@]1(c2nc3c(C(N)=O)cccc3[nH]2)CCCN1 [Veliparib] + Cc1nc(Nc2ncc(C(=O)Nc3c(C)cccc3Cl)s2)cc(N2CCN(CCO)CC2)n1 [Dasatinib] (partner 0.075 µM)
How it was run: as §1

Row | Cell Line | relative viability (Veliparib + Vorinostat; first compound 0.02 µM) | relative viability (Veliparib + Vorinostat; first compound 0.6325 µM) | relative viability (Veliparib + Vorinostat; first compound 2 µM) | relative viability (Veliparib + Decitabine; first compound 0.02 µM) | relative viability (Veliparib + Decitabine; first compound 0.6325 µM) | relative viability (Veliparib + Decitabine; first compound 2 µM) | relative viability ([1]; first compound 0.08 µM) | relative viability ([1]; first compound 0.253 µM) | relative viability ([1]; first compound 0.8 µM) | relative viability ([1]; first compound 2.53 µM) | relative viability ([1]; first compound 8 µM) | relative viability (Veliparib + Vorinostat; first compound 0.06325 µM) | relative viability (Veliparib + Vorinostat; first compound 0.2 µM) | relative viability (Veliparib + Decitabine; first compound 0.06325 µM) | relative viability (Veliparib + Decitabine; first compound 0.2 µM) | relative viability (Veliparib + Dasatinib; first compound 0.02 µM) | relative viability (Veliparib + Dasatinib; first compound 0.06325 µM) | relative viability (Veliparib + Dasatinib; first compound 0.2 µM) | relative viability (Veliparib + Dasatinib; first compound 0.6325 µM) | relative viability (Veliparib + Dasatinib; first compound 2 µM)
1 | NCI-H1648 | 0.481 | 0.572 | 0.424 | 0.487 | 0.529 | 0.424 | 0.373 | 0.515 | 0.337 | 0.528 | 0.406 | – | – | – | – | – | – | – | – | –
2 | NCI-H358 | 0.728 | 0.669 | 0.76 | 0.208 | 0.156 | 0.18 | – | 0.721 | 0.703 | 0.606 | 0.528 | 0.661 | 0.877 | 0.196 | 0.181 | 0.0991 | 0.156 | 0.169 | 0.131 | 0.152
3 | IA-LM | 0.925 | 0.789 | 0.969 | – | – | – | 0.801 | – | 0.971 | 1.05 | 0.961 | 0.906 | 0.888 | – | – | – | – | – | – | –
4 | 201T | 0.922 | 1.16 | 0.928 | 0.886 | 0.795 | 0.785 | 0.813 | 0.952 | 0.967 | 0.986 | 0.868 | 0.954 | 0.929 | 0.844 | 0.795 | 0.529 | 0.572 | 0.537 | 0.614 | 0.52
5 | LOU-NH91 | 0.846 | 0.822 | 0.945 | 0.847 | 0.782 | 0.837 | – | 0.953 | 0.906 | 0.963 | 0.884 | 0.842 | 0.919 | 0.785 | 0.792 | 0.529 | 0.522 | 0.537 | 0.544 | 0.53
6 | ChaGo-K-1 | 0.555 | 0.65 | 0.74 | 0.446 | 0.439 | 0.422 | – | 0.837 | 0.772 | 0.706 | 0.558 | 0.735 | 0.662 | 0.453 | 0.411 | 0.336 | 0.615 | 0.566 | 0.624 | 0.584
7 | NCI-H441 | 0.75 | 0.695 | 0.83 | 0.227 | 0.212 | 0.228 | 0.74 | 0.888 | 0.902 | 0.844 | 0.637 | 0.552 | 0.63 | 0.216 | 0.179 | 0.502 | 0.572 | 0.591 | 0.558 | 0.691
8 | ABC-1 | – | 1.37 | 0.875 | – | 1.07 | 1.06 | – | 0.517 | 1.13 | 0.973 | 1.02 | – | 0.979 | – | 0.82 | – | 0.355 | 0.604 | 0.591 | 0.367
9 | NCI-H661 | 0.815 | 0.697 | 0.76 | 0.555 | 0.424 | 0.443 | – | 0.807 | 0.717 | 0.747 | 0.639 | 0.807 | 0.713 | 0.545 | 0.481 | 0.886 | 0.846 | 0.777 | 0.86 | 0.869
10 | BEN | 0.544 | 0.614 | 0.593 | 0.572 | 0.565 | 0.624 | 0.566 | 0.566 | 0.591 | 0.543 | 0.548 | 0.615 | 0.62 | 0.581 | 0.613 | 0.232 | 0.292 | 0.377 | 0.361 | 0.266
11 | UMC-11 | 0.432 | 0.381 | 0.394 | 0.568 | 0.444 | 0.389 | 0.149 | 0.467 | 0.428 | 0.375 | 0.506 | 0.354 | 0.365 | 0.568 | 0.476 | 0.505 | 0.451 | 0.483 | 0.452 | 0.542
12 | NCI-H2023 | – | 0.472 | 0.48 | 0.215 | 0.141 | 0.13 | 0.256 | 0.631 | 0.619 | 0.647 | 0.654 | 0.536 | 0.581 | 0.152 | 0.172 | 0.511 | 0.596 | 0.532 | 0.547 | 0.625
13 | NCI-H2126 | 0.811 | 0.785 | 0.803 | 0.575 | 0.545 | 0.559 | 0.79 | 0.815 | 0.812 | 0.807 | 0.702 | 0.777 | 0.893 | 0.561 | 0.538 | 0.618 | 0.539 | 0.612 | 0.658 | 0.668
14 | EMC-BAC-2 | 0.606 | 0.638 | 0.493 | 0.997 | 0.874 | 0.984 | 0.257 | – | 0.568 | 0.429 | 0.36 | – | 0.646 | – | 0.936 | 0.362 | 0.27 | 0.333 | 0.305 | 0.315
15 | NCI-H838 | 0.792 | 0.652 | 0.725 | 0.409 | 0.32 | 0.426 | 0.285 | 0.614 | 0.75 | 0.771 | 0.737 | 0.692 | 0.71 | 0.453 | 0.408 | 0.269 | 0.287 | 0.256 | 0.246 | 0.326
16 | NCI-H322M | – | 0.976 | 0.717 | – | 0.656 | 0.655 | – | – | 0.866 | 0.888 | 0.845 | 0.873 | 0.899 | 0.608 | 0.682 | – | 0.231 | 0.246 | 0.27 | 0.253
17 | HCC-15 | 0.838 | 0.803 | 0.757 | 0.572 | 0.562 | 0.502 | 0.544 | 0.951 | 0.828 | 0.926 | 0.754 | 0.927 | 0.862 | 0.56 | 0.589 | – | 0.524 | 0.629 | 0.603 | 0.582
18 | NCI-H1395 | 0.432 | 0.638 | 0.499 | 0.704 | 0.606 | 0.652 | – | 0.634 | 0.816 | 0.84 | 0.574 | 0.485 | 0.648 | 0.626 | 0.686 | 0.379 | 0.381 | 0.46 | 0.414 | 0.437
